Data published in patent US5559150A, “N,N-disulfonylated aminobenzene carboxlic acids and the use thereof as thrombin inhibitors” (3-Dimensional Pharmaceuticals, Inc., priority 1995, dated 1996).

Columns and labels:
Factor Xa = target: T1, Factor Xa (Homo sapiens, UniProt P00742); assay: In vitro inhibition of purified Factor Xa (hydrolysis of peptide p-nitroanilide substrate); format: biochemical; settings: Bz-Ile-Glu-Gly-Arg-pNa substrate; 10 nM Factor Xa; pH 7.5, 37° C.
T1 construct: purchased Enzyme Research Laboratories Inc
Procedure: (§1) All assays are based on the ability of the test compound to inhibit the hydrolysis of a peptide p-nitroanilide substrate. In a typical experiment, substrate is prepared in DMSO, and diluted into an assay buffer consisting of 50 mM HEPES, 130 mM NaCl, pH 7.5. The final concentration for each of the substrates is listed below. All substrate concentrations are at least 10-fold lower than Km to insure inhibition is competitive. Test compounds are prepared as a 1 mg/ml solution in DMSO, and 3 additional 10-fold dilutions in DMSO are prepared. Enzyme solutions are prepared at the concentrations listed below in assay buffer.
In a typical IC50 determination, into each well of a 96 well plate is pipetted 280 uL of substrate solution, 10 μL of inhibitor solution, and the plate allowed to thermally equilibrate at 37° C. in a Molecular Devices Plate Reader for >10 minutes. Reactions were initiated by the addition of a 20 μL aliquot of enzyme, and the absorbance increase at 405 nm is recorded for 15 minutes. […] The ratio of the velocity (rate of the change in absorbance as a function of time) for a sample containing no inhibitor is divided by the velocity of a sample containing inhibitor, and is plotted as a function of inhibitor concentration. […]
Factor Xa activity was assessed as the ability to hydrolyse the substrate Bz-Ile-Glu-Gly-Arg-pNa (obtained from Sigma Chemical Company, St Louis, Mo.). […]

[1] = target: T2, Purified human α-thrombin (Homo sapiens, UniProt P00734); assay: In vitro inhibition of purified thrombin (hydrolysis of peptide p-nitroanilide substrate); format: biochemical
T2 construct: Purified human α-thrombin; purchased Enzyme Research Laboratories Inc
Procedure: as §1
In a typical IC50 determination, into each well of a 96 well plate is pipetted 280 uL of substrate solution, 10 μL of inhibitor solution, and the plate allowed to thermally equilibrate at 37° C. in a Molecular Devices Plate Reader for >10 minutes. Reactions were initiated by the addition of a 20 μL aliquot of enzyme, and the absorbance increase at 405 nm is recorded for 15 minutes. Data corresponding to less than 10% of the total substrate hydrolysis was used in the calculations. The ratio of the velocity (rate of the change in absorbance as a function of time) for a sample containing no inhibitor is divided by the velocity of a sample containing inhibitor, and is plotted as a function of inhibitor concentration. […]

T1 sequence (P00742 235-488 limits assumed): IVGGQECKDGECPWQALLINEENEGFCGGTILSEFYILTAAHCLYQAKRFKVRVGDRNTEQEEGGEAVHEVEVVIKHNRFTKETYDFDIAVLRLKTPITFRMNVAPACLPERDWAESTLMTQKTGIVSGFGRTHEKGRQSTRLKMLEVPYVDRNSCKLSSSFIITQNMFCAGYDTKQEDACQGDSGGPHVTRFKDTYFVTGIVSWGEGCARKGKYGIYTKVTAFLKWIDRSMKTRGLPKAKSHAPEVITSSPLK
T1 sequence (P00742 41-179 partner limits assumed): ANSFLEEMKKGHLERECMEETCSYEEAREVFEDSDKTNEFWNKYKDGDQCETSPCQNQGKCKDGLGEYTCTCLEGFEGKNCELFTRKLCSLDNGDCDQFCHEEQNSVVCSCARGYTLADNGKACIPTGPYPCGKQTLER

O=C(O)c1cccc(N(S(=O)(=O)c2ccc3ccccc3c2)S(=O)(=O)c2ccc3ccccc3c2)c1 [Example 4, 3-[Bis[(2-naphthalenyl)sulfonyl]amino]benzoic Acid]
IC50 (Factor Xa): 59 µM
IC50 ([1]; Bz-Phe-Val-Arg-pNa substrate, 36 nM thrombin, pH 7.5, 37° C.): 0.8 µM
inhibition of thrombin, potency and selectivity (in words) ([1]; conclusion from Table 1, selectivity versus other serine proteases such as plasmin): selective and highly potent inhibitors of thrombin
